Experimental findings from paper PMC8333425, “Discovery of a dual Ras and ARF6 inhibitor from a GPCR endocytosis screen” (Nature Communications, 2021) are described below.

Structures are written as SMILES.

In the test the target is H-Ras (Homo sapiens, UniProt P01112). Nature of the test: In vitro mant-GTP exchange assay, purified H-Ras with purified SOS1. Type of test: biochemical. On the set-up: the cDNA of H-Ras (full length) was obtained by RT-PCR of HEK293SL; GST (N); host or cells: E. coli BL21. The protocol: Ras activity was assessed in a 384-well black bottom plate using the mant-GTP exchange factor assay that measures the uptake of the fluorescent nucleotide analog N-methylanthraniloyl-GTP (mant-GTP) into GTPases. For Ras activation, 2X exchange buffer, 1.66 μg of purified pGEX-6P-1-H-Ras or pGEX-6P-1-K-Ras-WT or pGEX-6P-1-K-Ras-Y32A were added per well in presence of DMSO, different concentrations of Rasarfin (as indicated) or 50 µM of compounds 21.4, 21.7, or 21.8. Using the Infinite 200 Pro plate reader (Tecan) with filters set at 360 nm and 440 nm for detecting the excitation and emissions, respectively, and temperature set at 20 °C, 5 readings were recorded every 5 s before the addition of either H2O, 40 mM EDTA or 0.66 μg purified SOS1. The fluorescence of mant-GTP uptake was measured every 30 sec for 30 min and quantified as the delta relative fluorescence units (RFU), which was calculated as the RFU post-addition minus the 5 averaged RFU pre-addition, per condition.
Sequence of H-Ras (P01112 whole entry): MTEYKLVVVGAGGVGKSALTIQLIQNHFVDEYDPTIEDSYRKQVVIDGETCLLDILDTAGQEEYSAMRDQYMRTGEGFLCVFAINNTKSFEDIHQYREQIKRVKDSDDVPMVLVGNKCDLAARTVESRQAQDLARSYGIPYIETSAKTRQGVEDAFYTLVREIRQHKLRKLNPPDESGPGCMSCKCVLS

Take `CCCC(=O)N1CCN(c2ccc(NC(=O)c3cc4ccccc4o3)cc2Cl)CC1` [Compound 21.8]: the “Ras exchange activity, mant-GTP loading into H-Ras with SOS1 (Fig. 8c)” value (50 μM) is on record as “inhibited Ras exchange activity”.

On to `CC(C)C(=O)N1CCN(c2ccc(NC(=O)c3cc4ccccc4o3)cc2Cl)CC1` [Compound 21], for which, for the setting “different concentrations”, the “uptake of mant-GTP into purified H-Ras in presence of SOS1” value is given as “inhibited in a dose-dependent manner the uptake of GTP into Ras”.
